Patent publication US12162890B2 (Novartis AG, priority 2015, dated 2024)

Molecular target: HEK293 cells with stable expression of the GRIN1 gene and tetracycline-inducible expression of the GRIN2B gene (NMDA receptor, NR2B) (Homo sapiens, UniProt Q13224)
Test: Fluo-8 Ca2+ flux assay: reversal of Ro 25-6981-mediated suppression of the Ca2+ response to co-agonist (glutamate/glycine); also: test concentration or dose not given here
Assay type: cell-based
Settings: reversal of the Ro 25-6981 suppression of the Ca2+ response to co-agonist (glutamate/glycine)

Chain of HEK293 cells with stable expression of the GRIN1 gene and tetracycline-inducible expression of the GRIN2B gene (NMDA receptor, NR2B) (Q13224 27-1484, other chains not shown): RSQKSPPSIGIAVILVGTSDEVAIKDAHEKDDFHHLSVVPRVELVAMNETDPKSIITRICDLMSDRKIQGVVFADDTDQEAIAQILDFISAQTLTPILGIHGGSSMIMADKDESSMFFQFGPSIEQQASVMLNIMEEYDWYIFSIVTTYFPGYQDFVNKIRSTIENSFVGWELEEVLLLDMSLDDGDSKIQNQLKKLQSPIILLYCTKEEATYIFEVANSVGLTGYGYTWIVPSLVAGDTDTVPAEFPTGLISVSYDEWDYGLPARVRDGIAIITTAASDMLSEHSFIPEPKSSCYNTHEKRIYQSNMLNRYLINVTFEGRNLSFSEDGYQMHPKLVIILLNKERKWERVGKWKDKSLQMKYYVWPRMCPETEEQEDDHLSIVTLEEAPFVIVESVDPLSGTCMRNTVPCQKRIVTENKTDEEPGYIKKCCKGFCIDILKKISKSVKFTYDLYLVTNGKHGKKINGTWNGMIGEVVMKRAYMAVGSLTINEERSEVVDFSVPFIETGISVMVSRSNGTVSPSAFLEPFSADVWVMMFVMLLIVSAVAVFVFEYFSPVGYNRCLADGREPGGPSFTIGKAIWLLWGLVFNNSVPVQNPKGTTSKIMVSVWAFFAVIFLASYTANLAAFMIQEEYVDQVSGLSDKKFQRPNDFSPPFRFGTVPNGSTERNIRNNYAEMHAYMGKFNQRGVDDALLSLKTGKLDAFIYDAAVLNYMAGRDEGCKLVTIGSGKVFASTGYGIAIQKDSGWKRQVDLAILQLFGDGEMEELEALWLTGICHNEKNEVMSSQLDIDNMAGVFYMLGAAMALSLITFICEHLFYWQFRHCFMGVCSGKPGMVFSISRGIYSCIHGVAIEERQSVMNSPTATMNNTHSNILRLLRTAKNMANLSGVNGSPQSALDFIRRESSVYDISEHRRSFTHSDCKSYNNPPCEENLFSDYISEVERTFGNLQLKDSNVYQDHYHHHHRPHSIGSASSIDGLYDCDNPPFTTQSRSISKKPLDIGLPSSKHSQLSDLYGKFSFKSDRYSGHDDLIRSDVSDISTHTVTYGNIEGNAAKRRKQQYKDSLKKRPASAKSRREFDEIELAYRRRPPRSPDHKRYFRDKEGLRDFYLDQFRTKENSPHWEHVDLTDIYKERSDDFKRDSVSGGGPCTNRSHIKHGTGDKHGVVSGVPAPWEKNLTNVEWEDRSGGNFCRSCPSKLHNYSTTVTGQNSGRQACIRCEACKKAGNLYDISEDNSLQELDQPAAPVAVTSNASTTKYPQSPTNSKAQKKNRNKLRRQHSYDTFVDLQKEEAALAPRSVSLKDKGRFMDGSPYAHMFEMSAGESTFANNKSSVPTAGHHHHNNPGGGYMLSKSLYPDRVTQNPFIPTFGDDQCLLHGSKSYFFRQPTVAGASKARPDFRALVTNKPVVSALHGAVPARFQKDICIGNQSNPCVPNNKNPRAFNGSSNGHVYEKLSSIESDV

| Compound | Response Recovered (%) |
| --- | --- |
| C[Si](C)(C)CCOCn1cc(-c2ccc(F)c(Cl)c2)c2c(=O)n(CC(=O)N3CCC(F)C3)ccc21 (centres unmarked) [Example 206, 3-(3-chloro-4-fluorophenyl)-5-(2-(3-fluoropyrrolidin-1-yl)-2-oxoethyl)-1-((2-(trimethylsilyl)ethoxy)methyl)-1H-pyrrolo[3,2-c]pyridin-4(5H)-one] | 107 |
| O=C(Cn1cnc2c(c(-c3ccc(F)c(Cl)c3)cn2CCF)c1=O)N1CCCC1 [Example 172] | 40 |
| CC1(F)CN(C(=O)Cn2cnn3cnc(-c4ccc(Cl)c(Cl)c4)c3c2=O)C1 [Example 425, 5-(3,4-dichlorophenyl)-3-(2-(3-fluoro-3-methylazetidin-1-yl)-2-oxoethyl)imidazo[5,1-f][1,2,4]triazin-4(3H)-one] | 27 |
| O=C(Cn1cnc2ccn(-c3ccc(Cl)cc3)c2c1=O)N1CC(F)(F)C1 [Example 374, 5-(4-chlorophenyl)-3-(2-(3,3-difluoroazetidin-1-yl)-2-oxoethyl)-3H-pyrrolo[3,2-d]pyrimidin-4(5H)-one] | 4 |
| O=C(Cn1ccc2[nH]cc(-c3ccc(F)c(Cl)c3)c2c1=O)N1CCCC1 [Example 208, 3-(3-chloro-4-fluorophenyl)-5-(2-oxo-2-(pyrrolidin-1-yl)ethyl)-1H-pyrrolo[3,2-c]pyridin-4(5H)-one] | 60 |
| O=C(Cn1ccn2ncc(-c3ccc(Cl)c(Cl)c3)c2c1=O)N1CCCC1 [Example 326, 3-(3,4-dichlorophenyl)-5-(2-oxo-2-(pyrrolidin-1-yl)ethyl)pyrazolo[1,5-a]pyrazin-4(5H)-one] | 29 |
| O=C(Cn1ccc2c(c(-c3ccc(F)c(Cl)c3)cn2-c2ccncn2)c1=O)N1CCC(F)C1 (centres unmarked) [Example 248] | 59 |

The next lines start with the values.

| Response Recovered (%) | Compound |
| --- | --- |
| 79 | O=C(Cn1ccc2scc(-c3ccc(Cl)c(C(F)(F)F)c3)c2c1=O)N1CC(F)C1 [Example 34, 3-(4-chloro-3-(trifluoromethyl)phen-yl)-5-(2-(3-fluoroazetidin-1-yl)-2-oxoethyl)thieno[3,2-c]pyridin-4(5H)-one] |
| 103 | O=C(Cn1ccc2scc(-c3ccc(F)c(C(F)(F)F)c3)c2c1=O)N1CC[C@H](F)C1 [Example 26, (S)-3-(4-fluoro-3-(trifluoromethyl)phen-yl)-5-(2-(3-fluoropyrrolidin-1-yl)-2-oxoethyl)thieno[3,2-c]pyridin-4(5H)-one] |
| 29 | CN(C)CCn1cc(-c2ccc(F)c(C(F)(F)F)c2)c2c(=O)n(CC(=O)N3CCC(F)C3)ccc21 (centres unmarked) [Example 240] |
| 23 | O=C(Cn1cc(-c2ccccc2)c2scc(-c3ccc(Cl)c(C(F)(F)F)c3)c2c1=O)N1CCCC1 [Example 102, 3-(4-chloro-3-(trifluoromethyl)phenyl)-5-(2-oxo-2-(pyrrolidin-1-yl)ethyl)-7-phenylthieno[3,2-c]pyridin-4(5H)-one] |
| 23 | O=C(Cn1ccc2scc(-c3ccc(F)c(Cl)c3)c2c1=O)N1CC(F)C1 [Example 47, 3-(3-chloro-4-fluorophenyl)-5-(2-(3-fluoroazetidin-1-yl)-2-oxoethyl)thieno[3,2-c]pyridin-4(5H)-one] |
| 43 | O=C(Cn1ccc2[nH]cc(-c3cnc(Cl)c(C(F)(F)F)c3)c2c1=O)N1CC(F)C(F)C1 (centres unmarked) [Example 221, 3-(6-chloro-5-(trifluoromethyl)pyridin-3-yl)-5-(2-(3,4-difluoropyrrolidin-1-yl)-2-oxoethyl)-1H-pyrrolo[3,2-c]pyridin-4(5H)-one] |
| 35 | CC(C)(O)Cn1cc(-c2ccc(F)c(Cl)c2)c2c(=O)n(CC(=O)N3CCC(F)C3)ccc21 (centres unmarked) [Example 259, 3-(3-chloro-4-fluorophenyl)-5-(2-(3-fluoropyrrolidin-1-yl)-2-oxoethyl)-1-(2-hydroxy-2-methylpropyl)-1H-pyrrolo[3,2-c]pyridin-4(5H)-one] |
